These results are taken from US6992102B2, “Bicyclic modulators of androgen receptor function” (Bristol-Myers Squibb Company, priority 2001, dated 2006).

Sequence of endogenous glucocorticoid receptor (P04150 whole entry): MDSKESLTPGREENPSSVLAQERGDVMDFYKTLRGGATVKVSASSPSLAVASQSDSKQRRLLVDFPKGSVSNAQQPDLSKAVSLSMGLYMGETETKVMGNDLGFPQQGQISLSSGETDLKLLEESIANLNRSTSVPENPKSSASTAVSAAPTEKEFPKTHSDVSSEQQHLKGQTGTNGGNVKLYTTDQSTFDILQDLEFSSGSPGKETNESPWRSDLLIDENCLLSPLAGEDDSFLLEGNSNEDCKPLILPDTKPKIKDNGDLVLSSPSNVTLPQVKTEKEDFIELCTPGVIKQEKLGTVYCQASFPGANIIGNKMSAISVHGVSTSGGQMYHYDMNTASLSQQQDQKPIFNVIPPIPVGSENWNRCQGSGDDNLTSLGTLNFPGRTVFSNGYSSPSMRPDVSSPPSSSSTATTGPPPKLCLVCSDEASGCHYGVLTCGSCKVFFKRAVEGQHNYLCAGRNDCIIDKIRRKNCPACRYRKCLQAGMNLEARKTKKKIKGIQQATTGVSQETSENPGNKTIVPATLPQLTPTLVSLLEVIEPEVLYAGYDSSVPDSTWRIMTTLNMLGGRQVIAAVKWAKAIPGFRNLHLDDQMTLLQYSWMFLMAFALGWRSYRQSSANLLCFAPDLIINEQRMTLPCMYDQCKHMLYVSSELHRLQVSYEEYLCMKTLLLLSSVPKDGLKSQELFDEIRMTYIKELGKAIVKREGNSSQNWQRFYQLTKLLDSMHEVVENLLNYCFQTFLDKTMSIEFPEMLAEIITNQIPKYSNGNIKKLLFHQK

The first data set addresses T1, AR (Rattus norvegicus, UniProt P15207).
T1 sequence (P15207 1-902): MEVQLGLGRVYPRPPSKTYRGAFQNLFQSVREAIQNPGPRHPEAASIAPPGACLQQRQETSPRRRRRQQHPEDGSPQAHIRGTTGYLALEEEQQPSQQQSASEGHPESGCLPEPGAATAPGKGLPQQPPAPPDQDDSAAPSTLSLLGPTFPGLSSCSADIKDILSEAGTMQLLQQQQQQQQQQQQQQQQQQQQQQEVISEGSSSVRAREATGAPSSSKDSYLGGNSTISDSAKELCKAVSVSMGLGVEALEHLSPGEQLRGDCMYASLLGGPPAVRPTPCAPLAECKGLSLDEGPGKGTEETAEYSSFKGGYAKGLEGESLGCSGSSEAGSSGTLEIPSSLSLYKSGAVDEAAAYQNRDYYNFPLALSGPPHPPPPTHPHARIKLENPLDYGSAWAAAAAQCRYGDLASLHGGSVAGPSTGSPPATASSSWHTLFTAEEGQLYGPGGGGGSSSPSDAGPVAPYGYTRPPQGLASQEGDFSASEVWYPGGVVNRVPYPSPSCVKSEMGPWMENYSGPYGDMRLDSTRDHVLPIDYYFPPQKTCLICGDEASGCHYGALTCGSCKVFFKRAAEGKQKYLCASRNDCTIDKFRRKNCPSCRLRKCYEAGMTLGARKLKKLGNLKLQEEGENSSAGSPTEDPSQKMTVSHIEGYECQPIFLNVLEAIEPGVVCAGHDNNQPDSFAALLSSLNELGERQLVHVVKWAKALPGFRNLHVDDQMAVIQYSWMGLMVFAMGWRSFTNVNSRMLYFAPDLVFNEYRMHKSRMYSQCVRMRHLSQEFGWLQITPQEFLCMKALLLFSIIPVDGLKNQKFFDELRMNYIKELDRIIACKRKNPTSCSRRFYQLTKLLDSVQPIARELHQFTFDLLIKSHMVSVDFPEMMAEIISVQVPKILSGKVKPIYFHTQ
As to conditions: immature castrated rats. An excerpt:
The activity of compounds of the present invention as AR agonists was investigated in an immature male rat model, a recognized test of anabolic effects in muscle and sustaining effects in sex organs for a given compound, as described in L. G. Hershberger et al., Proc. Soc. […] Biol. Med., 83, 175 (1953); B. L. Beyler et al, “Methods for evaluating anabolic and catabolic agents in laboratory animals”, J. Amer. Med. Women's Ass., 23, 708 (1968); H. Fukuda et al., “Investigations of the levator ani muscle as an anabolic steroid assay”, Nago Dai. Yak. Ken. Nem. 14, 84 (1966) the disclosures of which are herein incorporated by reference.
The basis of this assay lies in the well-defined action of androgenic agents on the maintenance and growth of muscle tissues and sexual accessory organs in animals and man. […] J. Anat. […] Ital. Biol. Sper. […] II. […] Ital. Biol. Sper. 42, 1600 (1966); A. Boris et al., Steroids 15, 61 (1970). As described above, the effects of androgens on maintenance of male sexual accessory organs, such as the prostate and seminal vesicles, is well described. Castration results in rapid involution and atrophy of the prostate and seminal vesicles. This effect can be reversed by exogenous addition of androgens. […]
With `CCC(=O)O[C@H]1CC[C@H]2[C@@H]3CCC4=CC(=O)CC[C@]4(C)[C@H]3CC[C@]12C` [TP, testosterone propionate], the “EC50 (organ weight increase)” value is about 0.03 mg.

Still in this data set, the particulars now being: organ weight increase, castrated rats.
As for `CCC(=O)O[C@H]1CC[C@H]2[C@@H]3CCC4=CC(=O)CC[C@]4(C)[C@H]3CC[C@]12C` [TP, testosterone propionate], the “potency relative to free T” value was 10–30 fold.

Tested on in another data set: not given
Conditions: not given
Broadly, the melting point is the temperature, or range, at which the solid turns liquid. Regarding `C[C@@]12C(=O)N(c3ccc(C#N)c4ccccc34)C(=O)N1CC[C@@H]2O`, the melting point was 234 to 235 °C.

With `CC(C)(C)[C@H]1N(c2ccc(C#N)c3ccccc23)C(=O)[C@@H]2C[C@@H](O)CN21`, the melting point was in the range of 155 to 157 °C.

`N#Cc1ccc(N2C[C@@H]3[C@H](O)CCN3C2=O)c2ccccc12`: the melting point was in the range of 226 to 228 °C.

For `N#Cc1ccc(N2C(=O)[C@H]3[C@@H](O)CCCN3C2=O)c2ccccc12`, the melting point worked out at 244 °C.

For `CC(=O)O[C@@H]1CCN2C(=O)N(c3ccc(C#N)c4ccccc34)C(=O)[C@H]12` (racemic), the melting point is 105 °C.

Regarding `CC(C)(C)OC(=O)N1CCN2C(=O)N(c3ccc(C#N)c4ccccc34)C(=O)C2C1` (stereo not shown), the melting point lay in the range of 222 to 224 °C.

In turn, `O=C1C2C[C@@H](OCc3ccccc3)CN2C(=O)N1c1ccc([N+](=O)[O-])c2ccccc12` (stereo partly shown) showed a melting point of 120 to 122 °C.

The molecule `N#Cc1ccc(N2CC3[C@@H](O)CCN3C2=O)c2ccccc12` (stereo partly shown) registered a melting point of 226 to 228 °C.

`O=C1[C@H]2[C@@H](O)CCN2C(=O)N1c1ccc(Br)c2ccccc12` (racemic) displayed a melting point of 204 to 206 °C.

On to `O=C1C2CCCCN2C(=O)N1c1ccc([N+](=O)[O-])c2ccccc12` (racemic), for which the melting point is 190 to 192 °C.

Turning to `Cl.N#Cc1ccc(N2C(=O)C3CNCCN3C2=O)c2ccccc12` (racemic), the melting point came to 200 °C.

On to `N#Cc1ccc(N2C(=O)C3=CCCN3C2=O)c2ccccc12`, for which the melting point was 230 to 232 °C.

On to `CS(=O)(=O)N1CCN2C(=O)N(c3ccc(C#N)c4ccccc34)C(=O)C2C1` (racemic), for which the melting point lay in the range of 207 to 216 °C.

`CO[C@H]1CCN2C(=O)N(c3ccc(C#N)c4ccccc34)C(=O)[C@@H]12` (racemic): the melting point is 185 to 186 °C.

With `N#Cc1ccc(N2C(=O)[C@@H]3[C@H](O)CCN3C2=S)c2ccccc12`, the melting point lay within 215 to 216 °C.

For `C[C@]12C(=O)N(c3ccc(C#N)c4ccccc34)C(=O)N1CC[C@H]2O`, the melting point fell in the range of 232 to 234 °C.

Regarding `N#Cc1ccc(N2C(=O)[C@H]3[C@@H](O)[C@@H](O)CN3C2=O)c2ccccc12` (stereo in doubt), the melting point was 246 °C.

With `N#Cc1ccc(N2C(=O)[C@@H]3[C@H](O)[C@H](O)CN3C2=O)c2ccccc12` (stereo in doubt), the melting point stood at 225 °C.

For the molecule `N#Cc1ccc(N2C(=O)[C@@H]3[C@H](O)CCCN3C2=O)c2ccccc12` (racemic), the melting point worked out at 243 °C.

A further data set has as its target endogenous glucocorticoid receptor (Homo sapiens, UniProt P04150). As to conditions: concentration ≦10 µM; A549 cells stimulated with 10 ng/ml PMA; versus buffer control. As to the method: A549 cells, which contain endogenous glucocorticoid receptor, were stably transfected with an AP-1 DNA binding site attached to the luciferase gene. […] Cells are plated the day before the assay at approximately 40000 cells/well. […] Activity is measured by analysis in a luminometer as compared to control experiments treated with buffer or dexamethasome.
Regarding `C[C@@H]1C[C@H]2[C@@H]3CCC4=CC(=O)C=C[C@]4(C)[C@@]3(F)[C@@H](O)C[C@]2(C)[C@@]1(O)C(=O)CO` [dexamethasone], the “% inhibition of the reporter system (suppresses activity)” value turned out to be 65%.
